≈ marks a conversion by molar mass, not a printed value. Calls of active or inactive are those of the source. The rule behind the calls is not given here.
Tests used:
Rattus norvegicus [1] = assay: Antidepressant-like activity in Wistar rat assessed as minimum effective dose causing reduction in immobility time after oral administration with compound 15 mins prior to testing and measured for 5 mins test period by Porsolt-forced swim test; assay type: functional; details: 20 min, read-out: MED
[2] = Intrinsic clearance in human liver microsomes at 0.1 uM; assay type: ADME, Microsome; details: read-out: CLH
[3] = Protein binding in human plasma; assay type: ADME, cell-free; details: read-out: PPB (converted)
in vitro = details: human, Caco-2, pH 6.5
[4] = molecular target: Muscarinic acetylcholine receptor M2 (Homo sapiens) (UniProt P08172); assay: Inhibition of muscarinic M2 receptor (unknown origin) at 10 uM relative to control
Sequence of Muscarinic acetylcholine receptor M2 (Homo sapiens) (P08172 whole entry): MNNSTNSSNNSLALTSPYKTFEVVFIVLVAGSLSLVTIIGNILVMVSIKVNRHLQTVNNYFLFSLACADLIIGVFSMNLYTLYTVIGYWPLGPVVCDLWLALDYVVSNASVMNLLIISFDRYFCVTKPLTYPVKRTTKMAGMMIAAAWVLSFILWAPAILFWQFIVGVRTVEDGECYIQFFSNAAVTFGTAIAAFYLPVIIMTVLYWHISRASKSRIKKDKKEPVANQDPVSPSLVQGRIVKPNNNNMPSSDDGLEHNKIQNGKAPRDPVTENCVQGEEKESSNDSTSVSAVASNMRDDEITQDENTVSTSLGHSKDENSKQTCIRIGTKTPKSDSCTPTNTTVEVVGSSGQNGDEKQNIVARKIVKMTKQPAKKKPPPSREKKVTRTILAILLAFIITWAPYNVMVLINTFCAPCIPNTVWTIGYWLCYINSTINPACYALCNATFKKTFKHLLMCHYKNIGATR

[5] = molecular target: Muscarinic acetylcholine receptor M4 (Homo sapiens) (UniProt P08173); assay: Inhibition of muscarinic M4 receptor (unknown origin) at 1 uM relative to control
Homo sapiens [6] = organism: Homo sapiens; assay: Inhibition of sodium channel site2 (unknown origin) at 10 uM relative to control
[7] = Tmax in Wistar rat at […], po measured after 60 mins by HPLC analysis; assay type: ADME, organism-based; details: in vivo, dose 2.5 mg/kg
D(2) dopamine receptor = D(2) dopamine receptor (Homo sapiens, UniProt P14416); assay: Inhibition of dopamine D2S receptor (unknown origin) at 10 uM relative to control
[8] = Aqueous solubility of compound in simulated gastric fluid at 200 uM; assay type: physicochemical
[9] = molecular target: Cannabinoid receptor 1 (Homo sapiens) (UniProt P21554); assay: Inhibition of cannabinoid receptor 1 (unknown origin) at 10 uM relative to control
[10] = Apparent volume of distribution during terminal phase in Wistar rat at […], po measured after 60 mins by HPLC analysis; assay type: ADME, organism-based; details: in vivo, dose 2.5 mg/kg, read-out: Vz/F
[11] = molecular target: 5-hydroxytryptamine receptor 2A (Homo sapiens) (UniProt P28223); assay: Displacement of [3H]-ketanserin from human recombinant 5-HT2A receptor stably expressed in CHO-K1 cell membranes at 1 uM measured after 90 mins by microbeta2 scintillation counting analysis relative to control; details: Cell membrane
Sequence of 5-hydroxytryptamine receptor 2A (Homo sapiens) (P28223 whole entry): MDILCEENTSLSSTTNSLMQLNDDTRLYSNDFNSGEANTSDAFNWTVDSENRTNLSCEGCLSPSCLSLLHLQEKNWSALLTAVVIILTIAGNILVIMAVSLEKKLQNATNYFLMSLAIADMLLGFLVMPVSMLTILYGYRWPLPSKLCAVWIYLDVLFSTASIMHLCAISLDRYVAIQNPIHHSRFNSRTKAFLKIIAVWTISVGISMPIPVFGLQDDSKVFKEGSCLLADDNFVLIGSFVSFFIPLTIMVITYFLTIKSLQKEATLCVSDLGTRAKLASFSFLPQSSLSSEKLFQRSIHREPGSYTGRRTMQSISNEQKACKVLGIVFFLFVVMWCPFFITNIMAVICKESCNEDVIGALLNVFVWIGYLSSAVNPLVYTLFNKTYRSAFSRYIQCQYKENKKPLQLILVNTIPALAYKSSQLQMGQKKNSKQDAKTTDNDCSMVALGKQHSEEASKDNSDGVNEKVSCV

[12] = molecular target: 5-hydroxytryptamine receptor 1B (Homo sapiens) (UniProt P28222); assay: Inhibition of 5-HT1B (unknown origin) at 10 uM relative to control
Homo sapiens [13] = organism: Homo sapiens; assay: Inhibition of NMDA glutamate receptor (unknown origin) at 10 uM relative to control
hERG (KCNH2) = hERG (KCNH2) (Homo sapiens, UniProt Q12809); assay: Inhibition of human ERG at 10 uM by patch clamp technique relative to control
Rattus norvegicus [14] = assay: In vivo biased agonist activity at 5-HT1A receptor in rat prefrontal brain cortex assessed as increase in ERK1/2 phosphorylation levels at […], po administered as single dose by Alphalisa assay; assay type: functional, organism-based; details: time 5-60 min, TDE = time-dependent effect
[15] = molecular target: Mu-type opioid receptor (Homo sapiens) (UniProt P35372); assay: Inhibition of mu opioid receptor (unknown origin) at 10 uM relative to control
Sequence of Mu-type opioid receptor (Homo sapiens) (P35372 whole entry): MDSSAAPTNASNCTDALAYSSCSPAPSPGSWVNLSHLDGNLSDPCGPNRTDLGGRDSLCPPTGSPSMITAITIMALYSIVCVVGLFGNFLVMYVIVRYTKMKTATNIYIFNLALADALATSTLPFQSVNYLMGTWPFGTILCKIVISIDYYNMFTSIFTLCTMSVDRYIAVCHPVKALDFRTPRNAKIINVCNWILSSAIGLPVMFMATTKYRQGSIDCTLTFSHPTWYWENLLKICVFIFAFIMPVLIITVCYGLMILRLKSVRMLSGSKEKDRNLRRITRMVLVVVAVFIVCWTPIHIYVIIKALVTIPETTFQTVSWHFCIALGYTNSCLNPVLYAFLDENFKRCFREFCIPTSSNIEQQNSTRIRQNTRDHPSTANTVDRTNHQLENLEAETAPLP

MDCK-II = assay: Inhibition of P-gp in human MDR1-MDCKII cells at 10 uM relative to control; assay type: cell-based; details: Canis lupus familiaris
[16] = Effect on spontaneous locomotor activity in Wistar rat at 0.04 to […], po after 60 mins in presence of 5-HT1A antagonist WAY100635 by open field test; assay type: organism-based; details: in vivo, 1 h, dose 0.04-2.5 mg/kg
[17] = molecular target: Muscarinic acetylcholine receptor M1 (Homo sapiens) (UniProt P11229); assay: Inhibition of muscarinic M1 receptor (unknown origin) at 10 uM relative to control
Sequence of Muscarinic acetylcholine receptor M1 (Homo sapiens) (P11229 whole entry): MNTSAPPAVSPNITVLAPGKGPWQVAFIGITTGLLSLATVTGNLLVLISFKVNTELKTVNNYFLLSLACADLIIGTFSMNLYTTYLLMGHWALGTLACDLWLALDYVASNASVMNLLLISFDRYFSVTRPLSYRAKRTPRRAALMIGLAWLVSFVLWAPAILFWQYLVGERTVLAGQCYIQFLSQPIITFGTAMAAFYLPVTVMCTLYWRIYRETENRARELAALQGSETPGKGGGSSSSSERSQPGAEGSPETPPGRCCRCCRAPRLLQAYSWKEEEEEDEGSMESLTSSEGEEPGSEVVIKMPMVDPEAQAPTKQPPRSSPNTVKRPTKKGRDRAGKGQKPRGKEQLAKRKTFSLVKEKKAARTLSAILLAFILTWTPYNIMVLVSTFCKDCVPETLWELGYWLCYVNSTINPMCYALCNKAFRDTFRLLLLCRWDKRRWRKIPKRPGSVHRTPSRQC

[18] = molecular target: 5-hydroxytryptamine receptor 1D (Homo sapiens) (UniProt P28221); assay: Inhibition of 5-HT1D (unknown origin) at 1 uM relative to control
Sequence of 5-hydroxytryptamine receptor 1D (Homo sapiens) (P28221 whole entry): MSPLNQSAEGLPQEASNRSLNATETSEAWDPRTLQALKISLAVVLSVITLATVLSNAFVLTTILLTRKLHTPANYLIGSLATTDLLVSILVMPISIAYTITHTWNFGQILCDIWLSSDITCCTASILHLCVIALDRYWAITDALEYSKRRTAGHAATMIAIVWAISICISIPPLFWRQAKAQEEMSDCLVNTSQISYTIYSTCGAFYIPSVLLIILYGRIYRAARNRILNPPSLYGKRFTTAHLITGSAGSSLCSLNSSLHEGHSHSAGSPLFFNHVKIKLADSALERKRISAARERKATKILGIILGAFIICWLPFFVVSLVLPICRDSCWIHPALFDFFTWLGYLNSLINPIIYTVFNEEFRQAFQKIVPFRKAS

[19] = molecular target: Sodium-dependent noradrenaline transporter (Homo sapiens) (UniProt P23975); assay: Inhibition of norepinephrine transporter (unknown origin) at 10 uM relative to control
Sequence of Sodium-dependent noradrenaline transporter (Homo sapiens) (P23975 whole entry): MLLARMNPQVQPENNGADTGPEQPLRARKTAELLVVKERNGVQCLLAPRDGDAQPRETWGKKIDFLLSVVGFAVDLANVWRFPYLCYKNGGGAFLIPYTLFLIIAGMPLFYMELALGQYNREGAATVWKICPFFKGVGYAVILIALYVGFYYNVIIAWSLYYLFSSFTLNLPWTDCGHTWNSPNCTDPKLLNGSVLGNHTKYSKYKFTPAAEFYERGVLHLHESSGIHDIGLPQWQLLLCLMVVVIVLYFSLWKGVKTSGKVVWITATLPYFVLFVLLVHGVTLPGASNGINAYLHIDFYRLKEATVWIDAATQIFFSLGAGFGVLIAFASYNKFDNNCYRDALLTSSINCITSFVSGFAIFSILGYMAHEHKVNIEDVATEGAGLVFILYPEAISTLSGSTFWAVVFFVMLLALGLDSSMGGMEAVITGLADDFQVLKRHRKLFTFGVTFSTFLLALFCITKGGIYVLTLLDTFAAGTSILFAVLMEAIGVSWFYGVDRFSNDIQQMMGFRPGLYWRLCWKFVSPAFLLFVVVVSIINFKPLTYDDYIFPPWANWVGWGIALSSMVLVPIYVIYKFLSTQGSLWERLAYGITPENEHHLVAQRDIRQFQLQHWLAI

CYP3A4 = CYP3A4 (Homo sapiens, UniProt P08684); assay: Inhibition of human recombinant CYP3A4 at 10 uM relative to control; assay type: ADME
Rattus norvegicus [20] = assay: In vivo biased agonist activity at 5-HT1A receptor in rat prefrontal brain cortex assessed as increase in ERK1/2 phosphorylation levels at […], po administered as single dose measured after 30 mins by Alphalisa assay; assay type: functional, organism-based
[21] = molecular target: Prostaglandin G/H synthase 2 (Homo sapiens) (UniProt P35354); assay: Inhibition of COX2 (unknown origin) at 10 uM relative to control
[22] = molecular target: Neuronal acetylcholine receptor; alpha4/beta2 (Homo sapiens) (UniProt P17787+P43681); assay: Inhibition of nicotinic acetylcholine receptor alpha4beta2 (unknown origin) at 10 uM relative to control; assay type: protein-complex assay
Rattus norvegicus [23] = assay: Antidepressant-like activity in Wistar rat assessed as reduction in immobility time at […], po administered 15 mins prior to testing and measured for 5 mins test period by Porsolt-forced swim test; assay type: functional, organism-based; details: time 20.0 min
[24] = Cmax in Wistar rat brain at […], po measured after 60 mins by HPLC analysis; assay type: ADME, organism-based; design: route oral, dose 2.5 mg/kg, time 60 min
[25] = In vivo biased agonist activity at 5-HT1A receptor in rat prefrontal brain cortex assessed as time required to cause maximum increase in ERK1/2 phosphorylation levels at […], po administered as single dose by Alphalisa assay; assay type: functional
Homo sapiens [26] = organism: Homo sapiens; assay: Inhibition of potassium channel (unknown origin) at 10 uM relative to control
[27] = molecular target: Beta-2 adrenergic receptor (Homo sapiens) (UniProt P07550); assay: Inhibition of adrenergic beta2 receptor (unknown origin) at 10 uM relative to control
Sequence of Beta-2 adrenergic receptor (Homo sapiens) (P07550 whole entry, looked up): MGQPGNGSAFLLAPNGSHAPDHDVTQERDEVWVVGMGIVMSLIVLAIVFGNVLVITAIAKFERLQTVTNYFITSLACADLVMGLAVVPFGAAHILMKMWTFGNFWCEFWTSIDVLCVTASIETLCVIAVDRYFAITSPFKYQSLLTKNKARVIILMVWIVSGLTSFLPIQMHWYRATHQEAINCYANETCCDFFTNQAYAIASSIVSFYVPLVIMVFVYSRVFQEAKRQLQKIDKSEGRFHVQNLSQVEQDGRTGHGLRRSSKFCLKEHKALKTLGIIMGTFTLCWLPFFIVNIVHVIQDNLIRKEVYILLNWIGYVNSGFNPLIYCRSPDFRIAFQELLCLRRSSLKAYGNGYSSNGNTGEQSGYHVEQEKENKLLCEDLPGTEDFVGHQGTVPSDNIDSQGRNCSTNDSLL

Rattus norvegicus [28] = assay: Antidepressant-like activity in Wistar rat assessed as reduction in immobility time at 0.04 to […], po administered 60 mins prior to testing and measured for 5 mins test period in presence of 5-HT1A antagonist WAY100635 by Porsolt-forced swim test; assay type: functional, organism-based; details: dose lower 0.04 mg/kg, dose upper […], time 65.0 min
[29] = molecular target: Glucocorticoid receptor (Homo sapiens) (UniProt P04150); assay: Inhibition of glucocorticoid receptor (unknown origin) at 10 uM relative to control
Rattus norvegicus [30] = assay: Antidepressant-like activity in Wistar rat assessed as serum concentration causing 50% reduction in immobility time after oral administration of compound and measured after 15 mins by Porsolt-forced swim test; assay type: functional
[31] = molecular target: Prostaglandin G/H synthase 1 (Homo sapiens) (UniProt P23219); assay: Inhibition of COX1 (unknown origin) at 10 uM relative to control
Sequence of Prostaglandin G/H synthase 1 (Homo sapiens) (P23219 whole entry): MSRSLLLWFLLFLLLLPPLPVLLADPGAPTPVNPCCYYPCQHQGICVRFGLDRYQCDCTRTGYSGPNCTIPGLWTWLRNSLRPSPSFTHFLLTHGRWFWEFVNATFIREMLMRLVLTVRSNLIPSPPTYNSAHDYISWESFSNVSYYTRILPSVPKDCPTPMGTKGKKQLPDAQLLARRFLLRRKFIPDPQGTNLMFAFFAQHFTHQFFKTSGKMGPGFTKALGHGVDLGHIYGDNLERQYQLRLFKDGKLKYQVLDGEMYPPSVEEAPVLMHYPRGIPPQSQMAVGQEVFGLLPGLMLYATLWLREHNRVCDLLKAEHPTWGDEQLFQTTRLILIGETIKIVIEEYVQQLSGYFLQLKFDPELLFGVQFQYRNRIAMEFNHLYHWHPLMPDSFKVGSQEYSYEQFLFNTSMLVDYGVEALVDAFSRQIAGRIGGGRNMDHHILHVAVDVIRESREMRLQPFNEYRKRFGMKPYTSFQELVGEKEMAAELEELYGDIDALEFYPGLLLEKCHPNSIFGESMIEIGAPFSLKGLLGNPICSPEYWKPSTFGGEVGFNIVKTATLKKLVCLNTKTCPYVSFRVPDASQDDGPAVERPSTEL

[32] = molecular target: Sodium-dependent dopamine transporter (Homo sapiens) (UniProt Q01959); assay: Inhibition of dopamine transporter (unknown origin) at 10 uM relative to control
[33] = molecular target: Muscarinic acetylcholine receptor M3 (Homo sapiens) (UniProt P20309); assay: Inhibition of muscarinic M3 receptor (unknown origin) at 10 uM relative to control
[34] = molecular target: Alpha-1A adrenergic receptor (Homo sapiens) (UniProt P35348); assay: Inhibition of adrenergic alpha-1A receptor (unknown origin) at 1 uM relative to control
Sequence of Alpha-1A adrenergic receptor (Homo sapiens) (P35348 whole entry): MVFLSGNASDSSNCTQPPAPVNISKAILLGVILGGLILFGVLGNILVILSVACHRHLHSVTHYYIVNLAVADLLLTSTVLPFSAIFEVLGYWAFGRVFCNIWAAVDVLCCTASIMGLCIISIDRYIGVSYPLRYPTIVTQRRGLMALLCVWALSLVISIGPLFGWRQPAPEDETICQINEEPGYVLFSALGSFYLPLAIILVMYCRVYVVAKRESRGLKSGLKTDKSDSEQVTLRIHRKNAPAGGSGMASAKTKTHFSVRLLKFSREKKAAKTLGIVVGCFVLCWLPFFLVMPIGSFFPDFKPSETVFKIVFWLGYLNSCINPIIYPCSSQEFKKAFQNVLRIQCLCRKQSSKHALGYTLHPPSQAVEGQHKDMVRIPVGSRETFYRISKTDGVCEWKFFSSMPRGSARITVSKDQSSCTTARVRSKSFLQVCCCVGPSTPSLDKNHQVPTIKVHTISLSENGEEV

[35] = molecular target: 5-hydroxytryptamine receptor 6 (Homo sapiens) (UniProt P50406); assay: Inhibition of 5-HT6 (unknown origin) at 1 uM relative to control
Sequence of 5-hydroxytryptamine receptor 6 (Homo sapiens) (P50406 whole entry): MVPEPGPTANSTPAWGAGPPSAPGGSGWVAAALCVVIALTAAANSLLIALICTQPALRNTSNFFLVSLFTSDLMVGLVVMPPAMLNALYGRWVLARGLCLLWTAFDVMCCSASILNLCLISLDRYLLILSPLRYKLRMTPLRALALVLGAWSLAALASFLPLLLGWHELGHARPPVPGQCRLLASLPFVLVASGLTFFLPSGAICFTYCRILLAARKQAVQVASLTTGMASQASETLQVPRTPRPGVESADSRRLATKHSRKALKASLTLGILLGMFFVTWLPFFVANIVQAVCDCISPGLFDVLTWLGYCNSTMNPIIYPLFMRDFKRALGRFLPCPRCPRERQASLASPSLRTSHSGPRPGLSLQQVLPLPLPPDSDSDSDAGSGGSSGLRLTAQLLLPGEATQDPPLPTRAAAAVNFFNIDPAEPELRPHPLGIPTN

## O=C(c1ccc(F)c(Cl)c1)N1CCC(F)(CNCCOc2ccccn2)CC1
Rattus norvegicus [1]
  minimal effective dose: 0.16 mg/kg
[2]
  microsomal CLint at 0.1 µM: < 115 µL/min/mg
[3]
  fraction unbound: 0.068
In vitro
  Papp A→B: 25.9 ×10⁻⁶ cm/s
[4]
  inhibition: 6.3%
[5]
  inhibition: 8.8%
Homo sapiens [6]
  inhibition: 48.8%
[7]
  Tmax at 1 h: 15 min
D(2) dopamine receptor
  inhibition: 91.3%
[8]
  solubility at 200 µM: 200 µM (≈ 82 µg/mL)
[9]
  inhibition: 0.4%
[10]
  Vd/F at 1 h: 35.9 L/kg
[11]
  Activity: < 50%
[12]
  inhibition: -9.1%
Homo sapiens [13]
  inhibition: -1.8%
hERG (KCNH2)
  inhibition at 10 µM: 46.5%
Rattus norvegicus [14]
  Activity: Tde
[15]
  inhibition: 42.9%
MDCK-II
  inhibition: 6.5%
[16]
  Activity: Non-Toxic
[17]
  inhibition: 12.9%
[18]
  inhibition: 25.5%
[19]
  inhibition: -2%
CYP3A4
  inhibition at 10 µM: 23.2%
Rattus norvegicus [20]
  Activity: Active
[21]
  inhibition: -9.2%
[22]
  inhibition: -5.4%
Rattus norvegicus [23]
  Activity: Active
[24]
  Cmax at 1 h: 124 ng/mL
[25]
  Time: 15 min
Homo sapiens [26]
  inhibition: 3.8%
[27]
  inhibition: 3.8%
Rattus norvegicus [28]
  Activity: inactive
[29]
  inhibition: -5.1%
Rattus norvegicus [30]
  EC: 6.76 ng/mL
[31]
  inhibition: 11.9%
[32]
  inhibition: 20.4%
[33]
  inhibition: 9.7%
[34]
  inhibition: 87.6%
[35]
  inhibition: 12.1%
